The text below walks through data of patent US7138147B2, “Arsenic sulfide compounds and derivatives thereof for the treatment of malignancies” (priority 1998, dated 2006).

For data set [1] the following is noted: in vivo; cited from earlier work.
Another data set has as its system refractory APL. Conditions: intravenous 10 mg/day for 4–9 weeks; cited from earlier work.
In another data set the test system is NB4 cells. As to conditions: in vitro, APL cell line; cited from earlier work.
Another data set relates to non-Hodgkin's lymphoma. The data set is described as follows: Case study 4: non-Hodgkin's lymphoma patient. It counts as in vivo, human. Conditions: case study 4, resistant to conventional anticancer treatment; since March, 1998. An excerpt: (§1) Newly diagnosed, or relapsing patients are given a different protocol of treatment than are those patients who are in current remission. […] Preferably the dose given will range from approximately 0.5 to approximately 0.75 gram of arsenic disulfide. This equates to 2 to 3 capsules, according to the above formulation, by mouth for one dose. After the initial three days, the patient is given the compound three times daily until remission is induced. To prevent complications due to the potential build up of arsenic in the body, treatment should not exceed 100 days. In most cases, favorable response should be induced before forty days of treatment. These later doses may be somewhat reduced in amount compared to the original three day dosages. […] At this point, the patient should be reevaluated through testing, and allowed to rest before beginning another course of treatment according to the present protocol.
A person diagnosed with non-Hodgkin's lymphoma in September 1996 was treated with a combination chemotherapy regimen and had cranial irradiation for meningeal lymphoma. They also had high dose chemo-radiotherapy for autologous stem cell transplant. The patient has several relapses including intracranial relapse and a large amount of lymphoma cells in peripheral blood with typical clinical and laboratory features of lymphoma/leukemia. […]

For data set [2], the system named is chronic myeloid leukemia (CML). Description: Case study 3: chronic myeloid leukemia patient. It counts as in vivo, human. As to conditions: case study 3, 0.6 gram twice daily. The procedure:
A person was diagnosed as having chronic myeloid leukemia (CML) in February, 1959. […] Initially, they were treated with Myleran. On Jan. 20, 1960, the white blood cell count was […] showing a differential count of 11% promyelocyte and myelocyte. […] Patient was given 0.6 gram of arsenic disulfide twice daily. While being treated, blood and bone marrow pictures were controlled. The patient died, on Sep. 5, 1965 from infection unrelated to the arsenic sulfide treatment.

For data set [3] the following is noted: EPA/600/8-91/061; cited from earlier work.
Data set [4] concerns acute promyelocytic leukemia (APL). Description: Clinical treatment of APL patients with arsenic disulfide. It counts as in vivo, human.
Excerpt: as §1
(§2) The patient then abstains from treatment for a set period of time. During this time, the patient is tested. Treatment is adjusted according to test results with the period of abstention lasting from two weeks to 100 days, depending upon results. The length of the maintenance procedure varies according to patients' conditions, and may last as long as 3 years (including treating and resting periods). Each dose during this phase of treatment preferably contains arsenic disulfide in the range of approximately 0.50 to 0.75 gram. Once again the preferred method of administration is orally through use of a capsule as described above. Usually, a maintenance treatment is divided into two stages.
All patients who make up a part of the case studies have been diagnosed with APL on the basis of cell morphology of AML-M3, that is acute hypergranular promyelocytic leukemia, immunological cell markers, chromosomal analysis showing (15;17) translocation, and positive PML/RARα mRNA expression. Some patients were referred to the study with a diagnosis based solely on pathologic changes in cell morphology; these patients' diagnoses were tracked and reconfirmed throughout the study. Chronic myeloid leukemia and lymphoma patients have also benefitted from arsenic disulfide treatment, as illustrated by case studies 3 and 4.
Fifty-one patients met the inclusion criteria for the study.
(§3) Exclusion criteria for the study included history of hypersensitivity to arsenic compounds, previous treatment with arsenic-containing medications, patient in critical condition, excessively low or high white blood counts, existing heart, liver or kidney conditions, and severe infection. Three patients were excluded on these grounds, leaving 48 patients in the study. All 48 cases were treated with arsenic disulfide according to the above protocol. ATRA or other cytotoxic agents were not used. All 48 patients are living and Leukemia free as of April, 1998.

Data set [5] is described as follows: Solubility of As4S4 in solvents. Format: physicochemical. Conditions: polyvinylpyrrolidone, pyrrolidone, alcohol, ether, di-sodium hydrophosphate, mercaptopurine, sodium bicarbonate; various concentrations. The procedure:
In other experiments, a number of solvents, such as polyvinylpyrrolidone, pyrrolidone, alcohol, ether, di-sodium hydrophosphate, mercaptopurine and sodium bicarbonate, were tested to increase solubility of As4S4. […] Accordingly, As4S4 solubilized in the above solvents is useful for intravenous administration.

Data set [6] is described as follows: Side effects of arsenic disulfide treatment in patients. Format: in vivo, human.
Excerpt: as §1, §2, §3
Side effects of treatment with arsenic disulfide are minimal when compared to those of other antineoplastic agents. Potential side effects include loss of appetite, mild diarrhea, and transient reversible increase of aspartate aminotransferase (AST). A minority of patients experienced cutaneous itching or puffing of the eyelids, and mild leukopenia occurred slowly in 34% of patients. One patient had thrombocytopenia without bleeding. There were no deaths associated with the use of arsenic sulfide.

For the molecule calcium arsenate [reference compound], in [1], the tumorigenicity entry was “tumorigenic”.
Turning to arsenic trioxide, in the data set on refractory APL, the “patients with complete morphologic remission” value is reported as 14 of 15. The “apoptosis (programmed cell death)” value in the data set on NB4 cells is “induced apoptosis”.
As to `S1[As]2S[As]3S[As]2S[As]13` [arsenic disulfide], the clinical outcome is “in remission” in the data set on non-Hodgkin's lymphoma; “complete remission” in [4] (case study 1, newly diagnosed APL); “complete remission” in data set [4] (case study 2, relapsed APL, treated 21 days). For the same molecule, the “blood and bone marrow pictures” value in data set [2] was “controlled”. Also, the carcinogenicity classification result in [3] is listed as “human carcinogens”. Besides, the “time to complete remission level” value in data set [4] (case study 1) is listed as 36 days. Also, in [4] (case study 1, Aug. 28, 1997), the “blast cells and leukemic promyelocytes” value is recorded as “less than 5%”. Further, the “hemoglobin and platelet levels” value in data set [4] (case study 1, FIG. 1) is “marked increase”. Also, the “blasts and white blood cells” value is reported as “dramatic decrease” in data set [4] (case study 1, FIG. 2) and “dramatic change” in [4] (case study 2, FIG. 4). Moreover, the “patients living and leukemia free” value in [4] (of 48 APL patients treated, as of April, 1998, no ATRA or cytotoxic agents) worked out at 48 patients. Also, the “patients attaining complete remission after one course of treatment” value in data set [4] (of ten newly diagnosed or relapsed patients) is listed as “Eight”. For the same molecule, in data set [4] (patients in complete remission before treatment with positive markers), the “markers indicating residual leukemia cells after maintenance protocol” value is “persistently negative”. Further, the “patients alive and remaining in complete remission, leukemia free” value in data set [4] (ten newly diagnosed or relapsed patients) is on record as “All ten”. The solubility in solvents result in data set [5] is given as “soluble”. For the same molecule, in [6] (human, in vivo), the “deaths associated with use” value is given as “no deaths”. For the same molecule, in [6] (human, in vivo), the thrombocytopenia without bleeding entry is listed as “One patient”. For the same molecule, the “mild leukopenia, incidence” value in data set [6] (occurred slowly) is on record as 34 % of patients. For the same molecule, in data set [6] (patients), the “side effects compared to other antineoplastic agents” value is reported as “minimal”.
Consider `S=[As]S[As]=S` (stereo not drawn) [arsenic trisulfide], for which the tumorigenicity result in data set [1] is “inconclusive”. Also, in data set [3], the carcinogenicity classification entry is given as “human carcinogens”.
